In ChEMBL document CHEMBL1221314, “Potential anti-inflammatory phenolic glycosides from the medicinal plant Moringa oleifera fruits” (Bioorg Med Chem, 2010) one finds IC50, inhibition and Activity data, which are given here for nine compounds.

The test system of data set [1] is RAW264.7. Kind of data set: Antiinflammatory activity in mouse RAW264.7 cells assessed as inhibition of LPS-induced NO production incubated 30 mins prior to LPS challenge. The data set is classed as functional, cell-based.
The subject of data set [2] is RAW264.7. Kind of data set: Antiinflammatory activity in mouse RAW264.7 cells assessed as inhibition of LPS-induced NO production at 5 uM incubated 30 mins prior to LPS challenge. The data set is classed as functional.
Data set [3] deals with RAW264.7. Kind of data set: Antiinflammatory activity in mouse RAW264.7 cells assessed as inhibition of LPS-induced iNOS expression incubated 30 mins prior to LPS challenge by Western blotting. The data set is classed as functional, cell-based. Background: A western blot detects proteins with antibodies after separation by electrophoresis.
For data set [4], the system named is RAW264.7. Kind of data set: Cytotoxicity against mouse RAW264.7 cells after 24 hrs by SRB assay. The data set is classed as cell-based. Conditions: raw264.7, 24 h.

Usually IC50 stands for the concentration needed to halve the response being measured. For the compound `CNC(=N)NCCC[C@H](N)C(=O)O`, the IC50 in data set [1] turned out to be 25.5 µM.

The term inhibition denotes the share of the control response that was lost under treatment. As to `C[C@@H]1O[C@@H](Oc2ccc(CC#N)cc2)[C@H](O)[C@H](O)[C@H]1O` [NIAZIRIN], the inhibition at 5 µM in data set [2] is < 1%. In addition, the IC50 in data set [1] is > 45 µM.

On to `COC(=S)NCc1ccc(O[C@@H]2O[C@@H](C)[C@H](OC(C)=O)[C@@H](O)[C@H]2O)cc1` [NIAZICIN A], for which the inhibition at 5 µM in data set [2] came out at 17.3%. In addition, the IC50 in data set [1] is > 45 µM.

As for `CSC(=O)NCc1ccc(O[C@@H]2O[C@@H](C)[C@H](O)[C@@H](O)[C@H]2O)cc1`, the inhibition at 5 µM in data set [2] came to 24.3%. The IC50 in data set [1] is > 45 µM.

For the compound `CC(=O)O[C@@H]1[C@@H](O)[C@H](C)O[C@@H](Oc2ccc(CN=C=S)cc2)[C@@H]1O`, the Activity result is “Dose-dependent effect” in data set [3] and “Non-toxic” in data set [4]. Besides, in data set [1], the IC50 stood at 2.66 µM.

For the compound `CC(=O)O[C@H]1[C@H](Oc2ccc(CN=C=S)cc2)O[C@@H](C)[C@H](O)[C@H]1O`, the Activity entry in data set [3] was “Dose-dependent effect”; in data set [4], “Non-toxic”. Moreover, the IC50 in data set [1] worked out at 1.67 µM.

`CC(=O)O[C@@H]1[C@@H](O)[C@@H](O)[C@H](Oc2ccc(CN=C=S)cc2)O[C@H]1C`: the Activity result in data set [3] is “Dose-dependent effect”; in data set [4], “Non-toxic”. In data set [1], the IC50 worked out at 2.71 µM.

On to `C[C@@H]1O[C@@H](Oc2ccc(CN=C=S)cc2)[C@H](O)[C@H](O)[C@H]1O`, for which the Activity entry in data set [3] is “Dose-dependent effect”. For the same compound, in data set [1], the IC50 was 14.4 µM.

As to `COC(=S)NCc1ccc(O[C@@H]2O[C@@H](C)[C@H](O)[C@@H](O)[C@H]2O)cc1` [NIAZININ A], in data set [2], the inhibition at 5 µM is < 1%. For the same compound, the IC50 in data set [1] was > 45 µM.
